In patent publication US20140080813A1, “TRICYCLIC QUINOLINE AND QUINOXALINE DERIVATIVES” (ABBVIE DEUTSCHLAND GMBH & CO. KG, priority 2012, published 2014):
Structures can show the parent of a compound that is named as a salt.

Target: T1, 5-HT2C receptor (Homo sapiens, UniProt P28335)
T1 construct: host or cells: U2OS
Experiment: Functional activity: beta-arrestin2 recruitment to the 5-HT2C receptor in U2OS_HTR2C-β-Arrestin cells (DiscoverX)
Type: cell-based
Details: 1.5 h incubation, chemiluminescent β-galactosidase complementation readout, read-out: Potency (EC50) in functional assay
Experimental: The functional activity of compounds of formula I was assayed by incubation with U2OS_HTR2C—β-Arrestin cells (DiscoverX, 93-0289C3) to induce beta-arrestin2 recruitment to the 5-HT2C receptor. The agonist-induced recruitment and proximity of the receptor and beta-arrestin2 leads to complementation and formation of active β-galactosidase. The enzyme complementation results in enzyme activity, which is measured following the termination of the agonist incubation using DiscoveRx's detection reagent, which contains a chemiluminescent substrate which produces a high intensity signal. Cells were plated and a medium-change to a 1% serum containing medium was performed 24 h later. The next day, test compounds were added and incubated for 1.5 h before addition of detection reagent.
The response produced was measured and compared with the response produced by 10 [mu]M 5-HT or the maximal effect induced by 5-HT (defined as 100%) to which it was expressed as a percentage response (relative efficacy). Dose response curves were constructed using Graphpad Prism (Graph Software Inc.) or using in house adapted software using a 4 parameter dose response model with variable slope (fit=(Bottom+(Top−Bottom)/(1+10̂((LogEC50−x)*HillSlope))res=(y-fit)). Results are compiled in the table below.

T1 sequence (P28335 33-458): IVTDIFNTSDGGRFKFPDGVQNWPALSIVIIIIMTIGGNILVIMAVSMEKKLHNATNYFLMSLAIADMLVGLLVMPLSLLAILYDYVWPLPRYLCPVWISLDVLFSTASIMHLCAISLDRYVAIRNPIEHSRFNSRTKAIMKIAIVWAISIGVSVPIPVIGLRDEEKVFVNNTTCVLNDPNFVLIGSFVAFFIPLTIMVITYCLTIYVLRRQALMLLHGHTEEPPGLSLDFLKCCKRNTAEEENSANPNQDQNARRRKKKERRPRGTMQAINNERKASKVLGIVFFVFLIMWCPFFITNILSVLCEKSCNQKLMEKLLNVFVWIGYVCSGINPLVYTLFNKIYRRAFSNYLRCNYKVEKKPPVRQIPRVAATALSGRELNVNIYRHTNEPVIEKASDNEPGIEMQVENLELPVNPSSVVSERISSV
T1 sequence (P32121 whole entry partner): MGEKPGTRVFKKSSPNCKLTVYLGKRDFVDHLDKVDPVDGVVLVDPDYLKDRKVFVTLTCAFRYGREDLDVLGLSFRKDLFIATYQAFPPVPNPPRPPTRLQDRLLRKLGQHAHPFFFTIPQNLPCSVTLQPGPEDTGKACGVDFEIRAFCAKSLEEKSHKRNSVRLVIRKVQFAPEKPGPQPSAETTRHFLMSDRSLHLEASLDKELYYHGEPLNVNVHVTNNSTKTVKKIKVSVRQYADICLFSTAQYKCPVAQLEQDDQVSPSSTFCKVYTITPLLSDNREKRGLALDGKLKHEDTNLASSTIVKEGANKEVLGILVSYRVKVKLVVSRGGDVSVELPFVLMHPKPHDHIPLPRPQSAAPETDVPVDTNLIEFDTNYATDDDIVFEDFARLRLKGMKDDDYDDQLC

Row | SMILES | EC50
1 | CC1(C)CCN2CCNCc3cc(Cl)cc1c32 [Example 19, 10-Chloro-8,8-dimethyl-2,3,4,6,7,8-hexahydro-1H-[1,4]diazepino[6,7,1-ij]quinoline bis(2,2,2-trifluoroacetate)] | 20 to 200 nM
2 | c1cc2c3c(c1)C1(CCC1)CCN3CCNC2 [Example 25, 1′,2′,3′,4′,6′,7′-Hexahydrospiro[cyclobutane-1,8′-[1,4]diazepino[6,7,1-ij]quinoline], hydrochloride] | 20 to 200 nM
3 | Fc1ccc2c3c1C1(CCC1)CCN3CCNC2 [Example 26, 9′-Fluoro-1′,2′,3′,4′,6′,7′-hexahydrospiro[cyclobutane-1,8′-[1,4]diazepino[6,7,1-ij]quinoline], hydrochloride] | < 20 nM
4 | CC1(C)CCN2CCNCc3cccc1c32 [Example 1, 8,8-Dimethyl-2,3,4,6,7,8-hexahydro-1H-[1,4]diazepino[6,7,1-ij]quinoline] | 20 to 200 nM
5 | c1cc2c3c(c1)N1CCC[C@@H]1CN3CCNC2 [Example 16, (R)-5,6,7,9,9a,10,11,12-Octahydro-4H-[1,4]diazepino[1,7,6-de]pyrrolo[1,2-a]quinoxaline bis(2,2,2-trifluoroacetate)] | 200 to 1000 nM

Next, values leading:

Row | EC50 | SMILES
6 | 20 to 200 nM | CC1CN2CCNCc3cccc(c32)C1(C)C (single isomer, unassigned) [Example 28]
7 | 200 to 1000 nM | CC1CN2CCNCc3cccc(c32)C1(C)C (single isomer, unassigned) [Example 27]
8 | 20 to 200 nM | c1cc2c3c(c1)C1(CCCC1)CCN3CCNC2 [Example 6, 1,2,3,4,6,7-Hexahydrospiro[[1,4]diazepino[6,7,1-ij]quinoline-8,1′-cyclopentane]]
9 | 20 to 200 nM | CC1(C(F)(F)F)CCN2CCNCc3cccc1c32 (single isomer, unassigned) [Example 8, 8-Methyl-8-(trifluoromethyl)-2,3,4,6,7,8-hexahydro-1H-[1,4]diazepino[6,7,1-ij]quinoline]
10 | < 20 nM | CC1(C(F)(F)F)CCN2CCNCc3cccc1c32 (single isomer, unassigned) [Example 9, 8-Methyl-8-(trifluoromethyl)-2,3,4,6,7,8-hexahydro-1H-[1,4]diazepino[6,7,1-ij]quinoline]
11 | 20 to 200 nM | CC1(C)CCN2CCNCc3ccc(F)c1c32 [Example 22, 9-Fluoro-8,8-dimethyl-2,3,4,6,7,8-hexahydro-1H-[1,4]diazepino[6,7,1-ij]quinoline]
